What was measured:
[1] = Safety and tolerability (adverse events, laboratory values, vital signs, ECG) in healthy subjects; type: in vivo, human
Procedure: A routine physical examination, determination of vital signs (supine blood pressure, heart rate, respiratory rate, temperature), a 12-lead electrocardiogram (ECG), and clinical laboratory testing (serum chemistry, hematology, urinalysis) were performed at screening, at intervals during the study, and at the 14-day follow-up.
The intent-to-treat (ITT) population included all randomized subjects. The safety population was all randomized subjects who received any study drug.

[2] = Urine PK (urinary excretion, renal clearance) in healthy subjects; settings: for CL renal: human, urine, intravenous, CLr
[3] = Protein binding in human plasma; type: in vitro ADME
[4] = all subjects receiving the treatment
[5] = part C cohort 13, Day 5 (DUR 1 g + sulbactam 1 g)
[6] = part A cohort 6, single 4 g, n=4
[7] = part A cohort 7, single 8 g, n=5
[8] = part A cohort 8 (elderly), single 1 g, n=5
[9] = part B cohort 9, first 48 hours, dose over 48 hours 2.00 g (8 doses)
[10] = part B cohort 9, following the final dose on Day 8, 0.250 g
[11] = part B cohort 10, first 48 hours, dose over 48 hours 4.00 g (8 doses)
[12] = part B cohort 10, following the final dose on Day 8, 0.500 g
[13] = part B cohort 11, first 48 hours, dose over 48 hours 8.00 g (8 doses)
[14] = part B cohort 11, following the final dose on Day 8, 1.000 g
[15] = part B cohort 12, first 48 hours, dose over 48 hours 16.00 g (8 doses)
[16] = part B cohort 12, following the final dose on Day 8, 2.000 g
[17] = part C cohort 13, Day 1 (DUR 1 g alone)
[18] = part C cohort 14, Day 1 (DUR 1 g alone), mean
[19] = part D cohort 15, Day 1, DUR + SUL + IMI-CIL q6h, mean, n=10
[20] = part D cohort 15, Day 11, DUR + SUL + IMI-CIL q6h, mean, n=10

CL renal ([2]; 0.25 g, mean, part B cohort 9, following the final dose on Day 8, 0.250 g): 84.1 mL/min
CL renal ([2]; 0.25 g, median, part B cohort 9, following the final dose on Day 8, 0.250 g): 73.5 mL/min
CL renal ([2]; 0.5 g, mean, part B cohort 10, following the final dose on Day 8, 0.500 g): 95.6 mL/min
CL renal ([2]; 0.5 g, median, part B cohort 10, first 48 hours, dose over 48 hours 4.00 g (8 doses)): 291 mL/min
CL renal ([2]; 0.5 g, median, part B cohort 10, following the final dose on Day 8, 0.500 g): 96.2 mL/min
CL renal ([2]; 1 g, mean, part A cohort 8 (elderly), single 1 g, n=5): 55.4 mL/min
CL renal ([2]; 1 g, mean, part B cohort 11, first 48 hours, dose over 48 hours 8.00 g (8 doses)): 364 mL/min
CL renal ([2]; 1 g, mean, part B cohort 11, following the final dose on Day 8, 1.000 g): 93.6 mL/min
CL renal ([2]; 1 g, median, part A cohort 8 (elderly), single 1 g, n=5): 66 mL/min
CL renal ([2]; 1 g, median, part B cohort 11, following the final dose on Day 8, 1.000 g): 98 mL/min
CL renal ([2]; 2 g, mean, part B cohort 9, first 48 hours, dose over 48 hours 2.00 g (8 doses)): 238 mL/min
CL renal ([2]; 2 g, mean, part B cohort 12, following the final dose on Day 8, 2.000 g): 108 mL/min
CL renal ([2]; 2 g, median, part B cohort 9, first 48 hours, dose over 48 hours 2.00 g (8 doses)): 220 mL/min
CL renal ([2]; 2 g, median, part B cohort 12, following the final dose on Day 8, 2.000 g): 109 mL/min
CL renal ([2]; 4 g, mean, part A cohort 6, single 4 g, n=4): 132 mL/min
CL renal ([2]; 4 g, mean, part B cohort 10, first 48 hours, dose over 48 hours 4.00 g (8 doses)): 272 mL/min
CL renal ([2]; 4 g, median, part A cohort 6, single 4 g, n=4): 134 mL/min
CL renal ([2]; 8 g, mean, part A cohort 7, single 8 g, n=5): 109 mL/min
CL renal ([2]; 8 g, median, part A cohort 7, single 8 g, n=5): 130 mL/min
CL renal ([2]; 8 g, median, part B cohort 11, first 48 hours, dose over 48 hours 8.00 g (8 doses)): 392 mL/min
CL renal ([2]; 16 g, mean, part B cohort 12, first 48 hours, dose over 48 hours 16.00 g (8 doses)): 307 mL/min
CL renal ([2]; 16 g, median, part B cohort 12, first 48 hours, dose over 48 hours 16.00 g (8 doses)): 307 mL/min
CL renal [2, 5]: 81 mL/min
Fe, mean [2, 6]: 76.4345%
Fe, median [2, 6]: 77.8635%
Fe, mean [2, 7]: 55.0196%
Fe, median [2, 7]: 58.8180%
Fe, mean [2, 8]: 58.2604%
Fe, median [2, 8]: 57.3870%
intact drug renally excreted ([2]; part A single dose): approximately 50%
Fe, mean [2, 9]: 47.662%
Fe, median [2, 9]: 51.57%
Fe, mean [2, 10]: 56.473%
Fe, median [2, 10]: 60.48%
Fe, mean [2, 11]: 53.939%
Fe, median [2, 11]: 57.21%
Fe, mean [2, 12]: 67.523%
Fe, median [2, 12]: 65.88%
Fe, mean [2, 13]: 56.699%
Fe, median [2, 13]: 65.06%
Fe, mean [2, 14]: 65.711%
Fe, median [2, 14]: 67.09%
Fe, mean [2, 15]: 55.354%
Fe, median [2, 15]: 49.25%
Fe, mean [2, 16]: 69.336%
Fe, median [2, 16]: 63.93%
Fe [2, 17]: 40.964 (6.869) %
Fe [2, 5]: 49.963 (9.530) %
Fe [2, 18]: 42.664%
Fe [2, 19]: 43.518%
Fe [2, 20]: 49.158%
fraction unbound [3]: 0.1
SMILES: CC1=C[C@@H]2CN(C(=O)N2OS(=O)(=O)O)[C@@H]1C(N)=O [DUR, Durlobactam]
drug-related AE: catheter site phlebitis ([1]; DUR group, all subjects): 5.3%
drug-related AE: headache ([1]; DUR group, all subjects): 10.6%
treatment-emergent AE: catheter site phlebitis ([1]; DUR group, all subjects): 8.5%
treatment-emergent AE: headache ([1]; DUR group, all subjects): 13.8%
Drug-related AE: Abdominal pain [1, 4]: 0 No. (%) of subjects
Drug-related AE: Dizziness [1, 4]: 4 (4.3) No. (%) of subjects
Drug-related AE: Dysgeusia [1, 4]: 2 (2.1) No. (%) of subjects
Drug-related AE: Nasal congestion [1, 4]: 2 (2.1) No. (%) of subjects
Drug-related AE: Nausea [1, 4]: 2 (2.1) No. (%) of subjects
Drug-related AE: Pain in extremity [1, 4]: 1 (1.1) No. (%) of subjects
Drug-related AE: Phlebitis [1, 4]: 2 (2.1) No. (%) of subjects
Drug-related AE: Polydipsia [1, 4]: 0 No. (%) of subjects
Drug-related AE: Pruritus [1, 4]: 2 (2.1) No. (%) of subjects
Drug-related AE: Somnolence [1, 4]: 1 (1.1) No. (%) of subjects
Drug-related AE: Upper respiratory infection [1, 4]: 1 (1.1) No. (%) of subjects
Drug-related AE: Vulvovaginal candidiasis [1, 4]: 2 (2.1) No. (%) of subjects
drug-related AE: catheter site phlebitis [1, 4]: 5 (5.3) No. (%) of subjects
drug-related AE: headache [1, 4]: 10 (10.6) No. (%) of subjects
overall safety and tolerability ([1]; alone or with SUL and/or IMI-CIL): generally safe and well tolerated
changes in clinical laboratory values, vital signs, or ECG findings ([1]; any subject): No clinically significant changes
Ae, mean [2, 6]: 3057.384 mg
Ae, median [2, 6]: 3114.55 mg
Ae, mean [2, 7]: 4401.576 mg
Ae, median [2, 7]: 4705.45 mg
Ae, mean [2, 8]: 582.604 mg
Ae, median [2, 8]: 573.87 mg
Ae, mean [2, 9]: 953.242 mg
Ae, median [2, 9]: 1031.41 mg
Ae, mean [2, 10]: 141.184 mg
Ae, median [2, 10]: 151.20 mg
Ae, mean [2, 11]: 2157.551 mg
Ae, median [2, 11]: 2288.24 mg
Ae, mean [2, 12]: 337.614 mg
Ae, median [2, 12]: 329.39 mg
Ae, mean [2, 13]: 4535.949 mg
Ae, median [2, 13]: 5204.73 mg
Ae, mean [2, 14]: 657.112 mg
Ae, median [2, 14]: 670.87 mg
Ae, mean [2, 15]: 8856.594 mg
Ae, median [2, 15]: 7879.32 mg
Ae, mean [2, 16]: 1386.730 mg
Ae, median [2, 16]: 1278.52 mg
Ae [2, 17]: 409.644 (68.690) mg
Ae [2, 5]: 499.627 (95.305) mg
Ae [2, 18]: 426.643 mg
Ae [2, 19]: 3481.42 mg
Ae [2, 20]: 491.58 mg

— article PMC7318034, “Safety, Pharmacokinetics, and Drug-Drug Interaction Potential of Intravenous Durlobactam, a β-Lactamase Inhibitor, in Healthy Subjects” (Antimicrobial Agents and Chemotherapy, 2020)
